Assay results published in patent publication US20240279089A1, “METHOD FOR CONTROLLING THE GROWTH OF MICROORGANISMS” (RED BULL GMBH, priority 2021, published 2024).
One block for each molecule: values may come before it.

What was measured:
microorganisms = experiment: Germ count in process water of pasteurization plants (Plate Count Agar); assay type: cell-based
Text: In order to examine the influence of chlorine dioxide on the microbial quality of process water, the process water of a first pasteurization plant was mixed with the aqueous solution according to the invention containing chlorine dioxide, and the process water of a second pasteurization plant was mixed with a biocide.
(§1) The aqueous solution according to the invention containing chlorine dioxide (prepared with the persulfate-chlorite process) was metered discontinuously into the process water of the first pasteurization plant in an amount so as to keep the redox potential of the process water in the range of 400 to 800 mV. When the redox potential in the process water fell below 400 to 450 mV, the aqueous solution according to the invention containing chlorine dioxide was metered in until a redox potential between 750 and 800 mV was reached.
In contrast, bronopol was added to the process water of the second pasteurization plant on a time-controlled basis (every three days) in such an amount that the concentration of bronopol in the process water was […]. […]
The germ count in 1 ml of sample was determined using “Plate Count Agar” (PCA), with the appropriate amount of process water being applied to PCA plates. One plate at a time was incubated at 37° C., and one plate at a time was incubated at 28° C. The evaluation of the germ count took place after 2 and 5 days, respectively.

[1] = Redox potential of treated process water; assay type: physicochemical
Text: as §1
Concurrently. the redox potential of the pasteurization plant in which chlorine dioxide was metered into the process water was measured at the time of sampling for determining the germ count.
In 5 measurements within the examination period. the redox potential of the process water treated with bronopol always amounted to more than 1000 mV.

Compound: [O][Cl+][O-] [chlorine dioxide]
- Germ count/ml process water (microorganisms; 1 Mar. 2021): 940 mL⁻¹
- Germ count/ml process water (microorganisms; 2 Feb. 2021): 7040 mL⁻¹
- Germ count/ml process water (microorganisms; 4 Feb. 2021): 800 mL⁻¹
- Germ count/ml process water (microorganisms; 4 Jan. 2021): 280 mL⁻¹
- Germ count/ml process water (microorganisms; 5 Apr. 2021): 160 mL⁻¹
- Germ count/ml process water (microorganisms; 7 Jan. 2021): 3840 mL⁻¹
- Germ count/ml process water (microorganisms; 8 Apr. 2021): 2800 mL⁻¹
- Germ count/ml process water (microorganisms; 8 Feb. 2021): 80 mL⁻¹
- Germ count/ml process water (microorganisms; 11 Feb. 2021): 100 mL⁻¹
- Germ count/ml process water (microorganisms; 11 Jan. 2021): 3480 mL⁻¹
- Germ count/ml process water (microorganisms; 12 Apr. 2021): 6560 mL⁻¹
- Germ count/ml process water (microorganisms; 12 Mar. 2021): 9200 mL⁻¹
- Germ count/ml process water (microorganisms; 14 Jan. 2021): 3120 mL⁻¹
- Germ count/ml process water (microorganisms; 15 Apr. 2021): 700 mL⁻¹
- Germ count/ml process water (microorganisms; 15 Mar. 2021): 100 mL⁻¹
- Germ count/ml process water (microorganisms; 17 Feb. 2021): 200 mL⁻¹
- Germ count/ml process water (microorganisms; 18 Feb. 2021): 1120 mL⁻¹
- Germ count/ml process water (microorganisms; 18 Jan. 2021): 4160 mL⁻¹
- Germ count/ml process water (microorganisms; 18 Mar. 2021): 60 mL⁻¹
- Germ count/ml process water (microorganisms; 19 Apr. 2021): 140 mL⁻¹
- Germ count/ml process water (microorganisms; 21 Jan. 2021): 2100 mL⁻¹
- Germ count/ml process water (microorganisms; 22 Feb. 2021): 1740 mL⁻¹
- Germ count/ml process water (microorganisms; 22 Mar. 2021): 8000 mL⁻¹
- Germ count/ml process water (microorganisms; 23 Apr. 2021): 2020 mL⁻¹
- Germ count/ml process water (microorganisms; 25 Jan. 2021): 4800 mL⁻¹
- Germ count/ml process water (microorganisms; 25 Mar. 2021): 10000 mL⁻¹
- Germ count/ml process water (microorganisms; 26 Apr. 2021): 4500 mL⁻¹
- Germ count/ml process water (microorganisms; 26 Feb. 2021): 2340 mL⁻¹
- Germ count/ml process water (microorganisms; 28 Jan. 2021): 500 mL⁻¹
- Germ count/ml process water (microorganisms; 29 Apr. 2021): 3700 mL⁻¹
- Germ count/ml process water (microorganisms; 29 Mar. 2021): 10000 mL⁻¹
- germ count compared with conventional biocide (in words) (microorganisms; redox potential kept at 400 to 800 mV, 4 months): lower germ count
- Redox potential in process water ([1]; 1 Mar. 2021): 720 mV
- Redox potential in process water ([1]; 2 Feb. 2021): 710 mV
- Redox potential in process water ([1]; 4 Feb. 2021): 550 mV
- Redox potential in process water ([1]; 4 Jan. 2021): 810 mV
- Redox potential in process water ([1]; 5 Apr. 2021): 770 mV
- Redox potential in process water ([1]; 7 Jan. 2021): 740 mV
- Redox potential in process water ([1]; 8 Apr. 2021): 640 mV
- Redox potential in process water ([1]; 8 Feb. 2021): 800 mV
- Redox potential in process water ([1]; 11 Feb. 2021): 750 mV
- Redox potential in process water ([1]; 11 Jan. 2021): 710 mV
- Redox potential in process water ([1]; 12 Apr. 2021): 450 mV
- Redox potential in process water ([1]; 12 Mar. 2021): 580 mV
- Redox potential in process water ([1]; 14 Jan. 2021): 700 mV
- Redox potential in process water ([1]; 15 Apr. 2021): 800 mV
- Redox potential in process water ([1]; 15 Mar. 2021): 760 mV
- Redox potential in process water ([1]; 17 Feb. 2021): 780 mV
- Redox potential in process water ([1]; 18 Feb. 2021): 740 mV
- Redox potential in process water ([1]; 18 Jan. 2021): 620 mV
- Redox potential in process water ([1]; 18 Mar. 2021): 780 mV
- Redox potential in process water ([1]; 19 Apr. 2021): 780 mV
- Redox potential in process water ([1]; 21 Jan. 2021): 540 mV
- Redox potential in process water ([1]; 22 Feb. 2021): 510 mV
- Redox potential in process water ([1]; 22 Mar. 2021): 660 mV
- Redox potential in process water ([1]; 23 Apr. 2021): 560 mV
- Redox potential in process water ([1]; 25 Jan. 2021): 420 mV
- Redox potential in process water ([1]; 25 Mar. 2021): 490 mV
- Redox potential in process water ([1]; 26 Apr. 2021): 630 mV
- Redox potential in process water ([1]; 26 Feb. 2021): 640 mV
- Redox potential in process water ([1]; 28 Jan. 2021): 790 mV
- Redox potential in process water ([1]; 29 Apr. 2021): 680 mV
- Redox potential in process water ([1]; 29 Mar. 2021): 430 mV

- redox potential of the process water ([1]; 5 measurements within the examination period): more than 1000 mV
Compound: O=[N+]([O-])C(Br)(CO)CO [bronopol, reference compound]
- Germ count/ml process water (microorganisms; 1 Mar. 2021): >10000 mL⁻¹
- Germ count/ml process water (microorganisms; 2 Feb. 2021): 81600 mL⁻¹
- Germ count/ml process water (microorganisms; 4 Feb. 2021): >10000 mL⁻¹
- Germ count/ml process water (microorganisms; 4 Jan. 2021): 3600 mL⁻¹
- Germ count/ml process water (microorganisms; 5 Apr. 2021): >10000 mL⁻¹
- Germ count/ml process water (microorganisms; 7 Jan. 2021): 4200 mL⁻¹
- Germ count/ml process water (microorganisms; 8 Apr. 2021): >10000 mL⁻¹
- Germ count/ml process water (microorganisms; 8 Feb. 2021): >10000 mL⁻¹
- Germ count/ml process water (microorganisms; 11 Feb. 2021): >10000 mL⁻¹
- Germ count/ml process water (microorganisms; 11 Jan. 2021): 3400 mL⁻¹
- Germ count/ml process water (microorganisms; 12 Apr. 2021): >10000 mL⁻¹
- Germ count/ml process water (microorganisms; 12 Mar. 2021): >10000 mL⁻¹
- Germ count/ml process water (microorganisms; 14 Jan. 2021): >10000 mL⁻¹
- Germ count/ml process water (microorganisms; 15 Apr. 2021): >10000 mL⁻¹
- Germ count/ml process water (microorganisms; 15 Mar. 2021): >10000 mL⁻¹
- Germ count/ml process water (microorganisms; 17 Feb. 2021): 76000 mL⁻¹
- Germ count/ml process water (microorganisms; 18 Feb. 2021): >10000 mL⁻¹
- Germ count/ml process water (microorganisms; 18 Jan. 2021): >10000 mL⁻¹
- Germ count/ml process water (microorganisms; 18 Mar. 2021): >10000 mL⁻¹
- Germ count/ml process water (microorganisms; 19 Apr. 2021): >10000 mL⁻¹
- Germ count/ml process water (microorganisms; 21 Jan. 2021): 60200 mL⁻¹
- Germ count/ml process water (microorganisms; 22 Feb. 2021): >10000 mL⁻¹
- Germ count/ml process water (microorganisms; 22 Mar. 2021): >10000 mL⁻¹
- Germ count/ml process water (microorganisms; 23 Apr. 2021): >10000 mL⁻¹
- Germ count/ml process water (microorganisms; 25 Jan. 2021): >10000 mL⁻¹
- Germ count/ml process water (microorganisms; 25 Mar. 2021): >10000 mL⁻¹
- Germ count/ml process water (microorganisms; 26 Apr. 2021): >10000 mL⁻¹
- Germ count/ml process water (microorganisms; 26 Feb. 2021): 51000 mL⁻¹
- Germ count/ml process water (microorganisms; 28 Jan. 2021): 54400 mL⁻¹
- Germ count/ml process water (microorganisms; 29 Apr. 2021): >10000 mL⁻¹
- Germ count/ml process water (microorganisms; 29 Mar. 2021): >10000 mL⁻¹
